Structures can show the parent of a compound that is named as a salt.
How the values were obtained:
NET = assay: Occupancy assay, ex vivo binding in brain tissue, NET; conditions: dose 1 mg/kg, time point 3 hour
Excerpt: (§1) The general procedure for brain tissue collection and transporter occupancy assessment is briefly described as follows. Mice were sacrificed by asphyxiation in CO2, rats by decapitation and dogs by IV injection of euthanasia solution. For mice and rats, after the brains were removed from the skull, the forebrain tissue (removal of the brainstem and cerebellum) was used for SERT, NET, and DAT occupancy assessment. In dogs, the striatum was dissected for DAT occupancy and the remaining forebrain tissue (without the striatum, brainstem, and cerebellum) was used for SERT and NET occupancy assessment. The brain tissues were frozen in chilled isopentane and stored at −80° C. until homogenization.
(§2) The brain tissues were thawed and then homogenized using a polytron homogenizer (Kinematica). Sample aliquots were frozen immediately and stored at −80° C. Protein content was measured for each sample using a Coomassie protein assay kit (Pierce).
(§3) On the day of ex vivo binding for occupancy assessment, frozen sample aliquots were thawed and needle homogenized, and 100 μg of the tissue was incubated for SERT, NET, and DAT binding under assay conditions summarized in Table 1. […] Radioligand was measured using a Wallac Microbeta liquid scintillation counter.
(§4) The specific binding was calculated by subtracting the value of the non-specific binding from that of the total binding in each sample. […]

DAT = assay: Occupancy assay, ex vivo binding in brain tissue, DAT; conditions: dose 1 mg/kg, time point 3 hour
Excerpt: as §1, §2, §3, §4

SERT = assay: Occupancy assay, ex vivo binding in brain tissue, SERT; conditions: dose 1 mg/kg, time point 3 hour
Excerpt: as §1, §2, §3, §4

[1] = Mouse tail suspension assay; type: in vivo; conditions: male Swiss Webster mice, acute administration
Procedure: Male Swiss Webster mice were housed 3-4 per cage in rooms maintained at a constant temperature (21-23° C.) and humidity (50±10%) on a 12-hour light/dark cycle. Animals had ad libitum access to water and food throughout studies. On the day of testing, they were brought into the testing room and allowed to acclimate for 1 hour. To begin testing, the tail was attached to a piece of tape which was then attached to a hook on the ceiling of a sound-attenuated chamber. Immobility was automatically recorded using the Med Associates software. Compounds were administered acutely at a fixed pretreatment interval before session.

hNET = hNET (Homo sapiens (Human), UniProt P23975); assay: NET radioligand binding assay ([3H]nisoxetine, HEK-293 membranes)
Procedure: (§5) Recombinant HEK-293 cells expressing either the hSERT, hDAT, or hNET proteins were harvested from T-175 flasks as follows. The medium was removed from the flasks and the cells rinsed with HBSS without Ca and without Mg. The cells were then incubated for 5-10 minutes in 10 mM Tris-Cl, pH 7.5, 5 mM EDTA before the cells were lifted with a combination of pipetting and scraping, as needed. The cell suspension was collected into centrifuge bottles and homogenized for 30 seconds with a Polytron homogenizer. The suspension was centrifuged for 30 minutes at 32,000×g, 4° C. The supernatant was decanted and the pellet resuspended and homogenized in 50 mM Tris-Cl, pH 7.5, 1 mM EDTA for 10 seconds. […]
(§6) Compounds were dissolved in 100% DMSO at a concentration 100 times the desired highest assay concentration, serially diluted 1:3 in 100% DMSO, and 1.0 μl/well of each solution was dispensed to a Nunc polypropylene, round bottom, 384-well plate. […] The plates were air-dried overnight, 12 μl/well of MicroScint scintillation fluid added, and the plates counted in a Trilux.
(§7) The raw data was normalized to percent inhibition using control wells defining 0% (DMSO only) and 100% (selective inhibitor) inhibition which were run on each plate. […] The radioligand concentration chosen for each assay corresponds to the Kd concentration determined through saturation binding analysis for each assay.

hDAT = hDAT (Homo sapiens (Human), UniProt Q01959); assay: DAT radioligand binding assay ([125I]RTI-55, HEK-293 membranes)
Procedure: as §5
as §6, with “0.4” for “1.0”
as §7

hSERT = hSERT (Homo sapiens (Human), UniProt P31645); assay: SERT radioligand binding assay ([125I]RTI-55, HEK-293 membranes)
Procedure: as §5, with “seconds. The suspension was then centrifuged again for 30 minutes at 32,000×g, 4° C. The supernatant was decanted and the pellet resuspended in 50 mM Tris-Cl, pH 7.5, 1 mM EDTA and briefly homogenized. A Bradford assay (Bio-rad) was performed and the membrane preparation diluted to 2 mg/ml with 50 mM Tris-Cl, pH 7.5, 1 mM EDTA.” for “seconds.”
as §6, with “0.4” for “1.0”, “Trilux. […]” for “Trilux.”

Chain of hDAT (Q01959 whole entry): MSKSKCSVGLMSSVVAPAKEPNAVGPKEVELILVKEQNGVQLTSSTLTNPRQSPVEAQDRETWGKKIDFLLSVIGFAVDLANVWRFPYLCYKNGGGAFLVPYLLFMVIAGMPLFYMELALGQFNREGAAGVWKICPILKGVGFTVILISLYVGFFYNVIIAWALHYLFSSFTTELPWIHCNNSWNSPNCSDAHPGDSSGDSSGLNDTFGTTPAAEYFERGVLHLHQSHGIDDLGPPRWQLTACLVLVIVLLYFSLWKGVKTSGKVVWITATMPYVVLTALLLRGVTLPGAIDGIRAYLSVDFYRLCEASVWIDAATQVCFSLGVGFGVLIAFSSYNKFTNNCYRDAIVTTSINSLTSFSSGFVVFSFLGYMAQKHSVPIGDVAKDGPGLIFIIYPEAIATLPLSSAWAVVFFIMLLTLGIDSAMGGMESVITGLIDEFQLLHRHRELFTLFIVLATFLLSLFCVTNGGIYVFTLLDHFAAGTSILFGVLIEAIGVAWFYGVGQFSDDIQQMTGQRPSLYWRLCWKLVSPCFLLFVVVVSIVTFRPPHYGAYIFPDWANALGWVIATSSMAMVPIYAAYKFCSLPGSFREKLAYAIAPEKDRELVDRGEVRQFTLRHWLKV
Chain of hNET (P23975 whole entry): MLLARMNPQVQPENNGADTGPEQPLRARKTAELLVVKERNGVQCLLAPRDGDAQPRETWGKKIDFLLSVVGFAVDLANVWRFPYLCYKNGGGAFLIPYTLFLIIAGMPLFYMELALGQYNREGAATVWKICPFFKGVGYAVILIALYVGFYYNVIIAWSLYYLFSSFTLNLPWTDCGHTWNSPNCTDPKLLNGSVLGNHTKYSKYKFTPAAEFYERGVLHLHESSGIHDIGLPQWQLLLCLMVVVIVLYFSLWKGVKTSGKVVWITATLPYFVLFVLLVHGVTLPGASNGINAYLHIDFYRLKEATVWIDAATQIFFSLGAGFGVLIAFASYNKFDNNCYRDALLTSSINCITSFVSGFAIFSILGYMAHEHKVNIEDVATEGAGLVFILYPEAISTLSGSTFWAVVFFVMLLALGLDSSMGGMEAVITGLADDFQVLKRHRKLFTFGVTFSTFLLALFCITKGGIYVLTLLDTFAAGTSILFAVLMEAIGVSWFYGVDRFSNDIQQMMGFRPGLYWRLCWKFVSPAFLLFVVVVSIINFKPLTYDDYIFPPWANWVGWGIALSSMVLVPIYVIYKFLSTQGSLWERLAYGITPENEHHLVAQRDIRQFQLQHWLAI

Row | Structure (SMILES) | NET Occupancy % (NET) [%] | DAT Occupancy % (DAT) [%] | SERT Occupancy % (SERT) [%] | minimum effective dose in the mouse tail suspension study [1] [mg/kg] | IC50 (hNET) [nM] | IC50 (hDAT) [nM] | IC50 (hSERT) [nM]
1 | Clc1ccc(C2CNCc3cc(-c4ccc5ncnn5c4)ccc32)cc1Cl (single isomer, unassigned; (+)) [Example 1 (+)-enantiomer, (+)-7-([1,2,4]triazolo[1,5-a]pyridin-6-yl)-4-(3,4-dichlorophenyl)-1,2,3,4-tetrahydroisoquinoline, L-tartrate salt] | 11 | 26 | 75 | 10 | – | – | –
2 | Clc1ccc(C2CNCc3cc(-c4ccc5ncnn5c4)ccc32)cc1Cl (single isomer, unassigned; enantiomer 7) [Example 1 (−)-enantiomer, 7-([1,2,4]triazolo[1,5-a]pyridin-6-yl)-4-(3,4-dichlorophenyl)-1,2,3,4-tetrahydroisoquinoline] | 33 | 30 | 41 | – | 4.8 | 105 | 4.2

Source: patent US9173879B2, “Crystalline forms of (S)-7-([1,2,4]triazolo[1,5-a ]pyridin-6-yl)-4-(3,4-dichlorophenyl)-1,2,3,4-tetrahydroisoquinoline and use thereof” (Bristol-Myers Squibb Company, priority 2009, dated 2015)
